The compounds below were run against T1, ALK (Homo sapiens, UniProt Q96SW2+Q9HC35+Q9UM73) (assay: Western blot degradation of ALK (H2228 Cell)). Details: Table D5.
T1 construct: evaluate the effects of the compounds of the present disclosure on the expression of target proteins in cells; endogenous in cells; host or cells: H2228
Type: cell-based
Protocol: Conventional Western blot assay was performed to evaluate the effects of the compounds of the present disclosure on the expression of target proteins in cells.
(1) Cell Seeding and Protein Harvesting: The selected cells were processed according to the cell seeding procedure and protein harvesting procedure in Table III-2. Table III-2 Cell Seeding and Protein Harvesting Procedures
(2) To the collected supernatant, 5X SDS sample loading buffer was added, followed by denaturation at 95°C for 5 minutes. The denatured samples were then separated by SDS-PAGE electrophoresis on a polyacrylamide gel. Proteins were transferred to a nitrocellulose membrane (0.45 µm NC membrane), blocked with blocking buffer at room temperature for 1 hour, and subjected to antibody incubation and development procedures according to the antibody manufacturer's instructions (Cell Signaling Technology).
Half-Maximal Degradation Concentration value (the drug concentration required for degrading proteins by 50%, abbreviated as DC50) reads method: comparing the grayscale values of Western blot bands from drug-treated samples with those from blank DMSO-treated controls, and identifying the drug concentration range at which the grayscale value is half that of the DMSO-treated control bands.
DC50 values can be calculated using ImageJ software to measure grayscale values of Western blot bands from drug-treated samples. The concentration-response curve is fitted to estimate the drug concentration corresponding to half the grayscale value.
Target protein remaining (%) refers to the percentage of target protein remaining in hPBMC cells after treatment with protein degrader compounds.
Calculation method for target protein remaining (%): Use ImageJ software to measure grayscale values of Western blot bands from drug (protein degrader)-treated samples. The grayscale value of drug-treated bands is divided by that of internal control protein bands, and the resulting quotient is normalized to obtain the relative percentage of remaining target protein after protein degrader treatment.
Target protein degradation rate (%) = 100% - target protein remaining (%).

T1 sequence (Q9HC35+Q9UM73 fused): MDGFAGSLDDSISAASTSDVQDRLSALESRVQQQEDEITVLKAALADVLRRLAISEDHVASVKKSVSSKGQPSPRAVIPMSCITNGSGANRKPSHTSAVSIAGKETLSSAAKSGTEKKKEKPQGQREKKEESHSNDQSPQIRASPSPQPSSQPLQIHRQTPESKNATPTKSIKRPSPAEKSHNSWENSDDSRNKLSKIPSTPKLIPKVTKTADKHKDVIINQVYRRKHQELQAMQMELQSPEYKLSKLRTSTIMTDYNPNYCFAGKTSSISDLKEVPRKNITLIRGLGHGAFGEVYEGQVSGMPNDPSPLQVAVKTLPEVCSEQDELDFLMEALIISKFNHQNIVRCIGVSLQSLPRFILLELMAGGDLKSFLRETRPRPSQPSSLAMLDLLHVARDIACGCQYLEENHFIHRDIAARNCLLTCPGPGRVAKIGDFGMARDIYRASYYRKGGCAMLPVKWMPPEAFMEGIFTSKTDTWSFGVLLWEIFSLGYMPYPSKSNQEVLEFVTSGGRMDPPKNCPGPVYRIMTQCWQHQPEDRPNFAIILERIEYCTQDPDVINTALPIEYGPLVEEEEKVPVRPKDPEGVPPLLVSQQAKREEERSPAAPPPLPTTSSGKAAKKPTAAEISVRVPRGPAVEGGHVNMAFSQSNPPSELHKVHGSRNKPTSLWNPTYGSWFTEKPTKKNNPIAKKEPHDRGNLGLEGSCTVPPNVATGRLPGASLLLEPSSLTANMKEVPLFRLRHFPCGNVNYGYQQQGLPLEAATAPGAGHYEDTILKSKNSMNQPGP
T1 sequence (Q96SW2 whole entry): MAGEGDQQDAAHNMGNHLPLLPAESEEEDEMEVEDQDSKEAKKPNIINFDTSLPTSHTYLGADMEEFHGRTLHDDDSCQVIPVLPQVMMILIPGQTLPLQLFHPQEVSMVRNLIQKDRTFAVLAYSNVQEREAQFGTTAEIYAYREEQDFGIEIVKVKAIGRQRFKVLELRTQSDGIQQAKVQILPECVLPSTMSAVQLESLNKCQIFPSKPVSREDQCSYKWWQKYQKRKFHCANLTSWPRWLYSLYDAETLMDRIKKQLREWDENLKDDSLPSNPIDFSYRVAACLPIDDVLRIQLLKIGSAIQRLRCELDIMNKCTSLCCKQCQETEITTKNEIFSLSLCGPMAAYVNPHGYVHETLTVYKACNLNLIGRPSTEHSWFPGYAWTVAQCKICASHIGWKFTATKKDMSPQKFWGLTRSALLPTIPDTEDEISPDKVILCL
T1 sequence (Q16531 whole entry partner): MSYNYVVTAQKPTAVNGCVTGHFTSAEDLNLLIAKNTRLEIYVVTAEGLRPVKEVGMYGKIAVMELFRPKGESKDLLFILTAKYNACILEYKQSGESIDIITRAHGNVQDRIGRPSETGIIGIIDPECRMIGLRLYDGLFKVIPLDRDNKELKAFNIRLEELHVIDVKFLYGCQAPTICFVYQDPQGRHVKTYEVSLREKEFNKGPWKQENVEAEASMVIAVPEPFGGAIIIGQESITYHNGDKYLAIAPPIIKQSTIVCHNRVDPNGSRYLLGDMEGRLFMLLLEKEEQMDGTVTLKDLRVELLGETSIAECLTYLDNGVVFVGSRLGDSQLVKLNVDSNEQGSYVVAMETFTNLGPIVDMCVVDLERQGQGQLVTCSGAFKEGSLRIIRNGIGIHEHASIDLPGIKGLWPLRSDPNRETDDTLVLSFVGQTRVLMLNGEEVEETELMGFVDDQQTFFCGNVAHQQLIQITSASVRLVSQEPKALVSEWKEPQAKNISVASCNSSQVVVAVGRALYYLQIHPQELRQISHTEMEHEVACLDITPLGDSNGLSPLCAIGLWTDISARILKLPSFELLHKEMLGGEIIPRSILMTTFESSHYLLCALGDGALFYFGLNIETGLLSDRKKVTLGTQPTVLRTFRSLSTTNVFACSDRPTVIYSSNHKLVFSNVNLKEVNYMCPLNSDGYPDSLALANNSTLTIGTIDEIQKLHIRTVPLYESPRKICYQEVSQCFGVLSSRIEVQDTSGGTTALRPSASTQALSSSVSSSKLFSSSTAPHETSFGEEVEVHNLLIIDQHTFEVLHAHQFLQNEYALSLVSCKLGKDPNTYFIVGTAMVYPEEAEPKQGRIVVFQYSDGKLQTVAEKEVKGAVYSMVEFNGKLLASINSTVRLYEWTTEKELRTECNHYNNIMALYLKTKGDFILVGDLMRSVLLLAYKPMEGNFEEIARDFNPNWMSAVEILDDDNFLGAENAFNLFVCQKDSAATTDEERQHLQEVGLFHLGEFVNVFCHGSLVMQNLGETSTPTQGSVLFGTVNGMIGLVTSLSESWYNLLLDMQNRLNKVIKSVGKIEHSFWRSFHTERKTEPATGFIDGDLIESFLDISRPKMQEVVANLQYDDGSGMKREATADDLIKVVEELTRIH

Q: Which “Degradation of substrate protein ALK (substrate protein remaining %)” value (shortened to “Degradation … (substrate protein remaining %)”) does the source give for CCc1cc2c(cc1N1CCC(N3CCN(Cc4cc(N5CCC(=O)NC5=O)cnc4F)CC3)CC1)C(C)(C)c1[nH]c3cc(C#N)ccc3c1C2=O [GT-07755, 8-(4-(4-((5-(2,4-dioxotetrahydropyrimidin-1(2H)-yl)-2-fluoropyridin-3-yl)methyl)piperazin-1-yl)piperidin-1-yl)-9-ethyl-6,6-dimethyl-11-oxo-6,11-dihydro-5H-benzo[b]carbazole-3-carbonitrile] here?
A: A (A is defined as 0% ≤ substrate protein remaining % ≤ 80%)

Q: With CCc1cc2c(cc1N1CCC(N3CCN(Cc4ncc(N5CCC(=O)NC5=O)cc4F)CC3)CC1)C(C)(C)c1[nH]c3cc(C#N)ccc3c1C2=O [GT-07924, 8-(4-(4-((5-(2,4-dioxotetrahydropyrimidin-1(2H)-yl)-3-fluoropyridin-2-yl)methyl)piperazin-1-yl)piperidin-1-yl)-9-ethyl-6,6-dimethyl-11-oxo-6,11-dihydro-5H-benzo[b]carbazole-3-carbonitrile] as the compound, how does the “Degradation … (substrate protein remaining %)” value read?
A: A (A is defined as 0% ≤ substrate protein remaining % ≤ 80%)

Q: With CCc1cc2c(cc1N1CCN(Cc3ccnc(N4CCC(=O)NC4=O)c3)CC1)C(C)(C)c1[nH]c3cc(C#N)ccc3c1C2=O [GT-07834, 8-(4-((2-(2,4-dioxotetrahydropyrimidin-1(2H)-yl)pyridin-4-yl)methyl)piperazin-1-yl)-9-ethyl-6,6-dimethyl-11-oxo-6,11-dihydro-5H-benzo[b]carbazole-3-carbonitrile] as the compound, how does the “Degradation … (substrate protein remaining %)” value read?
A: A (A is defined as 0% ≤ substrate protein remaining % ≤ 80%)

Q: Which “Degradation … (substrate protein remaining %)” value does the source give for CCc1cc2c(cc1N1CCN(Cc3cc(C4CCC(=O)NC4=O)cnc3F)CC1)C(C)(C)c1[nH]c3cc(C#N)ccc3c1C2=O (centres unmarked) [GT-07836, 8-(4-((5-(2,6-dioxopiperidin-3-yl)-2-fluoropyridin-3-yl)methyl)piperazin-1-yl)-9-ethyl-6,6-dimethyl-11-oxo-6,11-dihydro-5H-benzo[b]carbazole-3-carbonitrile] here?
A: A (A is defined as 0% ≤ substrate protein remaining % ≤ 80%)

Q: How did the “Degradation … (substrate protein remaining %)” value turn out when COc1cc(N2CCC(N(C)Cc3cnc(N4CCC(=O)NC4=O)cn3)CC2)ccc1Nc1ncc(Cl)c(Nc2ccccc2P(C)(C)=O)n1 [GT-07751, 1-(5-(((1-(4-((5-chloro-4-((2-(dimethylphosphoryl)phenyl)amino)pyrimidin-2-yl)amino)-3-methoxyphenyl)piperidin-4-yl)(methyl)amino)methyl)pyrazin-2-yl)dihydropyrimidine-2,4(1H,3H)-dione] was run?
A: A (A is defined as 0% ≤ substrate protein remaining % ≤ 80%)

Q: For Cc1cc(Nc2ncc(Cl)c(Nc3ccccc3S(=O)(=O)C(C)C)n2)c(OC(C)C)cc1C1CCN(Cc2cnc(N3CCC(=O)NC3=O)cn2)CC1 [GT-07758, 1-(5-((4-(4-((5-chloro-4-((2-(isopropylsulfonyl)phenyl)amino)pyrimidin-2-yl)amino)-5-isopropoxy-2-methylphenyl)piperidin-1-yl)methyl)pyrazin-2-yl)dihydropyrimidine-2,4(1H,3H)-dione], which “Degradation … (substrate protein remaining %)” value is on record?
A: A (A is defined as 0% ≤ substrate protein remaining % ≤ 80%)

Q: How did the “Degradation … (substrate protein remaining %)” value turn out when CCc1cc2c(cc1N1CCN(Cc3cc(N4CCC(=O)NC4=O)ncc3F)CC1)C(C)(C)c1[nH]c3cc(C#N)ccc3c1C2=O [GT-07833, 8-(4-((2-(2,4-dioxotetrahydropyrimidin-1(2H)-yl)-5-fluoropyridin-4-yl)methyl)piperazin-1-yl)-9-ethyl-6,6-dimethyl-11-oxo-6,11-dihydro-5H-benzo[b]carbazole-3-carbonitrile] was run?
A: A (A is defined as 0% ≤ substrate protein remaining % ≤ 80%)

Q: CCc1cc2c(cc1N1CCC(N3CCN(Cc4cnc(N5CCC(=O)NC5=O)cn4)CC3)CC1)C(C)(C)c1[nH]c3cc(C#N)ccc3c1C2=O [GT-07756, 8-(4-(4-((5-(2,4-dioxotetrahydropyrimidin-1(2H)-yl)pyrazin-2-yl)methyl)piperazin-1-yl)piperidin-1-yl)-9-ethyl-6,6-dimethyl-11-oxo-6,11-dihydro-5H-benzo[b]carbazole-3-carbonitrile] was tested. Which “Degradation … (substrate protein remaining %)” value did it give?
A: A (A is defined as 0% ≤ substrate protein remaining % ≤ 80%)

Source: patent EP4678638A1, “NEW E3 UBIQUITIN LIGASE LIGAND, PROTEIN DEGRADATION AGENT AND USE THEREOF” (priority 2023, dated 2024)
